# According to publication PMC6769468, “Endogenous Neuropeptide Nocistatin Is a Direct Agonist of Acid-Sensing Ion Channels (ASIC1, ASIC2 and ASIC3)” (Biomolecules, 2019):
# Ends that are not written are not given here.
# How the values were obtained:
# [1] = test system: homomeric ASICs; test: Whole-cell current, homomeric ASICs in oocytes (all isoforms together); format: cell-based, rat
# Experimental: (§1) Oocytes expressed rASIC1a, rASIC1b, rASIC2a, and rASIC3 homomeric channels were prepared as described. Injected oocytes were kept for two–three days at 19 °C and then for up to seven days at 15 °C in ND-96 medium supplemented with gentamycin (50 μg·mL^−1) and containing (in mM): 96 NaCl, 2 KCl, 1.8 CaCl2, 1 MgCl2, and 10 HEPES titrated to pH 7.4 with NaOH. Electrophysiological recordings were performed using the GeneClamp500 amplifier (Axon Instruments, Inverurie, UK) at a holding potential of -50 mV. The data were filtered at 20 Hz and digitized at 100 Hz using the L780 AD converter (L-Card, Moscow, Russia). Microelectrodes were filled with 3 M KCl. The external bath solution was ND-96 with pH adjusted to 7.4/7.8 (10 mM HEPES) /8.5 (10 mM Tris). Nocistatin containing solutions were freshly prepared and buffered each experimental day in ND-96 bath solution (pH 7.4/7.8/8.5). Proton-activated currents through ASIC channels were elicited by application of ND-96, in which 10 mM of HEPES was substituted with 10 mM MES at pH 5.5/ 10 mM acetic acid at pH 4.5. The whole-cell recording was performed if a response to the control pH stimulus was stable in at least two replicates. Nocistatin-activated currents were elicited by application of nocistatin containing solutions with various concentrations of the peptide.
# Extracellular solutions were applied using a computer-controlled valve system with a flow rate of 1 mL/min. The oocyte chamber volume was 80 µL. The validity of the application system for studying ASIC channels expressed in oocytes was confirmed in experiments by application of a Cl-free solution (containing (in mM): 130 NMDG, 1 MgGluc2, 2 KGluc, 5 HEPES) (pH 7.4). Fast application of proton/peptide-activating solution was performed at a flow rate of 1 mL/sec (the change of the bath solution occurred within 100 ms), followed by PC controlled flow stopping (from 5 to 15 s).
# [2] = biological target: T1, rat ASIC3 (Rattus norvegicus, UniProt O35240); test: Whole-cell current activation, rat ASIC3 in X. laevis oocytes; format: cell-based
# T1 construct: expressed in transfected cells; host or cells: Xenopus laevis oocytes (injected)
# T1 sequence (O35240 1-533): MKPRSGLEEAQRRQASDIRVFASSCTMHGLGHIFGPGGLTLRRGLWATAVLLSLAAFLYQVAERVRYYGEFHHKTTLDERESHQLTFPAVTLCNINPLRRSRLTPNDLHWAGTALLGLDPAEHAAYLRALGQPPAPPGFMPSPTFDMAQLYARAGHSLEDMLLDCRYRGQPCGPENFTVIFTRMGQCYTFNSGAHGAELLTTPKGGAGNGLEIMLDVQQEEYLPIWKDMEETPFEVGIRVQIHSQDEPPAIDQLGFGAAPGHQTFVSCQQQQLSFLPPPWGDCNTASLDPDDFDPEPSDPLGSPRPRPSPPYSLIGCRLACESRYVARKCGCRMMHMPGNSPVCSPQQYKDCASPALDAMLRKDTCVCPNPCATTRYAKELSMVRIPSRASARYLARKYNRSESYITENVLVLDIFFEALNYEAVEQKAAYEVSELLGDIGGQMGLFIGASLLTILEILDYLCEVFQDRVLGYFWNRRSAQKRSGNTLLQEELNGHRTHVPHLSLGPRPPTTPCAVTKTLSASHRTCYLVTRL
# Experimental: as §1, with “The whole-cell recording was performed if a response to the control pH stimulus was stable in at least two replicates. Nocistatin-activated currents were elicited by application of nocistatin containing solutions with various concentrations of the peptide.” left out
# All data are presented as mean ± SEM. The significance of normalized data differences was determined with a non-parametric Kruskal-Wallis ANOVA test with the significance level * p < 0.05 and ** p < 0.01; ns, non-significant.
sequence,measurement,setting,value
MPRVRSVVQARDAEPEADAEPVADEADEVEQKQLQ [rNS],Response to a pH drop after washing out the peptide,[1]; after washout,completely restored after washing out the peptide
same,Response to rapid acidification after activation by the peptide,[1]; pH drop after 1 mM rNS,did not respond further to rapid acidification after activation by the peptide
same,Effect of application at resting pH 7.4,"[1]; resting pH 7.4, 1 mM rNS",causes rapidly activating inward currents in homomeric ASICs
same,tmax greater than for protons by,"[2]; 1 mM rNS vs pH drop 7.4–5.5, slower activation",~ 49%
same,τdes (desensitization time constant),"[2]; 1 mM rNS, conditioning pH 7.4, mean ± S.E. from 4–7 measurements",0.4 ± 0.1 s
